Results reported in patent publication US11033577B2, “Polymer conjugate of hexa-coordinated platinum complex” (priority 2015, dated 2021).

How the values were obtained:
[1] = Body weight of mice in Antitumor Test 2; format: in vivo; conditions: 18 mg/kg once, caudal vein
Experimental: (§1) Human stomach cancer 4-1ST was collected subcutaneously from a nude mouse and was cut into blocks each measuring about 3 mm on each side. The tumor blocks thus obtained were transplanted subcutaneously on the dorsal side of nude mice using a trocar. On the 17th day after transplantation, where the average tumor volume had reached about 100 to 200 mm^3, various drugs were administered through the caudal vein. The use and dose (in terms of drug) of the various administered drugs are as follows. In regard to the Example 11 compound, the compound was dissolved in a 5% glucose injectable solution, and the solution was administered once at a dose of 15 mg/kg or 7.5 mg/kg. In regard to the Example 12 compound, the compound was dissolved in a 5% glucose injectable solution, and the solution was administered once at a dose of 30 mg/kg or 15 mg/kg. As a control drug, l-OHP was administered once at a dose of 18 mg/kg, and cisplatin was administered once at a dose of 10 mg/kg. Regarding the amounts of administration of l-OHP and cisplatin and the high amounts of administration of the various Example compounds, the maximum tolerable doses (MTD doses) were employed for all of the compounds. After the administration, the major axis (L) and the minor axis (W) of the tumor were measured over time using calipers, and the tumor volume (L×W×W×0.5) was calculated. The test was performed by employing four animals per group for all of a non-administered group as well as various drug-administered groups. During the period from the initiation of administration to the 21st day after administration, the relative tumor volume (T/C (%)) of each drug-administered group based on the relative tumor volume of a non-drug-administered group as 100 was calculated by the following formula as an index for the antitumor effect. T/C(%)=Relative tumor volume of administered group/relative tumor volume of non-administered group×100 Formula: […]
(§2) After the administration, the body weights of the mice were measured over time. During the period from the initiation of administration to the 21st day after administration, the changes in the relative body weight based on the body weight on the day of initiation of administration as 1 are presented in Table 5.

[2] = Body weight of mice in Antitumor Test 3; format: in vivo; conditions: caudal vein
Experimental: as §1, with “20th” for “17th”, “7” for “11”, “16” for “12”, “18 mg/kg or 9” for “18”
as §2, with “7.” for “5.”

For O=C1[O][Pt]2([NH][C@@H]3CCCC[C@H]3[NH]2)[O]C1=O [l-OHP, oxaliplatin], the “Relative body weight in numbers of days after administration” value (shortened to “Relative body weight in numbers of days”) ([1]; day 0) was 1.00, the “Relative body weight in numbers of days” value ([1]; day 4) was 0.78 and the “Relative body weight in numbers of days” value ([1]; day 7) was 0.83. The “Relative body weight in numbers of days” value ([1]; day 11) was 0.93, the “Relative body weight in numbers of days” value ([1]; day 14) was 1.03 and the “Relative body weight in numbers of days” value ([1]; day 18) was 1.09. The “Relative body weight in numbers of days” value ([1]; day 21) was 1.05, the “Relative body weight in numbers of days” value ([2]; 9 mg/kg once, day 0) was 1.00 and the “Relative body weight in numbers of days” value ([2]; 9 mg/kg once, day 4) was 0.96. The “Relative body weight in numbers of days” value ([2]; 9 mg/kg once, day 7) was 1.00, the “Relative body weight in numbers of days” value ([2]; 9 mg/kg once, day 11) was 1.01 and the “Relative body weight in numbers of days” value ([2]; 9 mg/kg once, day 14) was 1.02. For the same molecule, the “Relative body weight in numbers of days” value ([2]; 9 mg/kg once, day 18) was 1.02, the “Relative body weight in numbers of days” value ([2]; 9 mg/kg once, day 21) was 1.02 and the “Relative body weight in numbers of days” value ([2]; 18 mg/kg once, day 0) was 1.00. For the same molecule, the “Relative body weight in numbers of days” value ([2]; 18 mg/kg once, day 4) was 0.85, the “Relative body weight in numbers of days” value ([2]; 18 mg/kg once, day 7) was 0.89 and the “Relative body weight in numbers of days” value ([2]; 18 mg/kg once, day 11) was 0.98. The “Relative body weight in numbers of days” value ([2]; 18 mg/kg once, day 14) was 1.01, the “Relative body weight in numbers of days” value ([2]; 18 mg/kg once, day 18) was 1.02 and the “Relative body weight in numbers of days” value ([2]; 18 mg/kg once, day 21) was 1.04.
